Measured values taken from patent EP4768499A1, “MACROCYCLIC PEPTIDE COMPOUND HAVING CELL MEMBRANE PERMEABILITY AND METABOLIC STABILITY, AND LIBRARY CONTAINING SAME” (Chugai Seiyaku Kabushiki Kaisha, priority 2023, dated 2025).
Starred links: 1 amine or outer side, 2 acyl side, 3 side chain; linkers in the order of their positions; H or OH if unused. Positions of bridges follow the written chain, without caps; N, C: chain ends. Non-standard residues stand in square brackets, D forms with d. Residues, ends and D or L forms follow the SMILES beside them. *: point of attachment. NMeF = CN[C@@H](Cc1ccccc1)C(=O)O; NMeGABA = CN(CCCC(=O)[*:2])[*:1]; NMeI = CC[C@H](C)[C@H](NC)C(=O)O; NMeT = CN[C@H](C(=O)O)[C@@H](C)O; hPhe = N[C@@H](CCc1ccccc1)C(=O)O; NMeβAla = CN(CCC(=O)[*:2])[*:1]; NMeD = CN[C@@H](CC(=O)O)C(=O)O; NMeL = CN[C@@H](CC(C)C)C(=O)O; NMeV = CN[C@H](C(=O)O)C(C)C; d(β3hA) = C[C@@H](N)CC(=O)O; NMeAbu = CC[C@H](NC)C(=O)O; NMeA = CN[C@@H](C)C(=O)O; Piperidide = C1CCN(*)CC1; Abu = CC[C@H](N)C(=O)O; βAla = NCCC(=O)O; Sar = CNCC(=O)O; tBu = CC(C)(C)*

How the values were obtained:
[1] = Membrane permeability test using Caco-2 cells with preincubation; assay type: in vitro ADME; conditions: Caco-2; preincubation 20 to 24 hours; Apical FaSSIF/HBSS pH 6.0, Basal HBSS 4% BSA pH 7.4; 180 minutes; read-out: Caco2 Papp
Procedure: (§1) The permeability coefficient (Caco-2 Papp (cm/sec)) is calculated using a numerical expression 1. [Expression 1] Papp = (1)/(C1 (0) × S) × (dQ)/(dt) [formula] dQ/dt represents the permeation rate of drug (the amount of drug appearing on the Basal side per unit time), S represents the total surface area of cells, and C1(0) represents the concentration of drug added on the Apical side.
(§2) Using a mixed medium of FaSSIF containing 1% DMSO and DMEM as the apical medium, and DMEM as the basal medium, Caco-2 cells and peptide compounds are preincubated for 20 to 24 hours under conditions of 5% CO2, 37°C, and 80 rpm. Afterward, the culture medium on the Apical side and the Basal side are aspirated and washed, the peptide compound was added to a FaSSIF/HBSS buffer solution containing 1% DMSO (1% DMSO) (pH 6.0) at the Apical side, a HBSS buffer solution containing 4% BSA (pH 7.4) was added to the Basal side, and measurement of membrane permeability is started. Each well is shaken under 5% CO2 at 37°C and 80 rpm, and at 180 minutes after the start of shaking, a sample on the Basal side is collected. The amount of peptide compounds in the sample was measured using LCMS, and the membrane permeability coefficient was calculated from the permeation amount (Table 7). When calculating the membrane permeability coefficient (Papp) from the permeation amount, the following expression can be used. Papp = (dQ)/(dt) × (1)/(C1 (0) × S) [formula]
(§3) dQ/dt represents the permeation rate of drug (the amount of drug appearing on the Basal side per unit time), C1(0) represents the concentration of drug added on the Apical side, and S represents the total surface area of cells.

Caco-2 cells = experiment: as above; assay type: in vitro ADME; conditions: preincubation 20 to 24 hours; for Caco2 Papp (10^-6 cm/sec): Caco-2 cells, apical FaSSIF/HBSS 1% DMSO pH 6.0, basal HBSS 4% BSA pH 7.4, basal sample at 180 minutes
Procedure: as §1, §2, §3

[2] = Metabolic stability test: liver microsomal stability assay; assay type: in vitro ADME, mouse; conditions: mouse liver microsomes 0.5 mg protein/mL, compound 1 µM; for microsomal CLint at 1 µM: male, pH 7.4, presence of NADPH, read-out: Mouse Hepatic Microsome CLh,int NADPH(+); for Mouse Hepatic Microsome CLh,int NADPH(-): absence of NADPH
Procedure: Under the presence and absence of NADPH, a microsome solution prepared to a concentration of 0.5 mg protein/mL using 100 mM phosphate buffer (pH 7.4) with mouse liver microsomes (male, Corning Incorporated, USA) and the compound at a concentration of 1 µM were subjected to a metabolic reaction for 22 minutes, 44 minutes, or 66 minutes. Protein removal processing was performed over time using acetonitrile, and the remaining amount of unchanged compound was analyzed using LCMS to calculate the intrinsic hepatic clearance (CLh, int) (Table 6).

Papp A→B [1] [×10⁻⁶ cm/s]	Caco2 Papp (10^-6 cm/sec) (Caco-2 cells)	microsomal CLint at 1 µM [2] [µL/min/mg]	Mouse Hepatic Microsome CLh,int NADPH(-) [2] [µL/min/mg Protein]	Caco2 Papp (Caco-2 cells; Apical FaSSIF/HBSS pH 6.0, Basal HBSS 4% BSA pH 7.4, 180 minutes)	SMILES
0.94	0.94 10^-6 cm/sec	34.2	29.6	–	CC[C@H](C)[C@H]1C(=O)N[C@@H](Cc2ccccc2)C(=O)N2CCC[C@H]2C(=O)N(C)[C@@H](CC(C)C)C(=O)N[C@@H](COC(C)(C)C)C(=O)N(C)[C@@H](Cc2ccccc2)C(=O)N[C@@H]([C@@H](C)O)C(=O)N(C)[C@@H](CC)C(=O)N2CCC[C@H]2C(=O)N(C)[C@@H](CC(C)C)C(=O)N(C)[C@@H](C(C)C)C(=O)N[C@H](C(=O)N2CCCCC2)CC(=O)N(C)CCCC(=O)N(C)[C@@H](CC(C)C)C(=O)N1C [pd001] ([NMeGABA][NMeL][NMeI]FP[NMeL]S(tBu)[NMeF]T[NMeAbu]P[NMeL][NMeV]D-Piperidide; lactam N-14)
0.39	0.39 10^-6 cm/sec	34.2	30.1	–	CC[C@H](C)[C@@H]1NC(=O)[C@@H]2CCCN2C(=O)[C@H](CC(C)C)N(C)C(=O)[C@H](Cc2ccccc2)N(C)C(=O)[C@H]([C@@H](C)CC)N(C)C(=O)[C@H]([C@@H](C)O)NC(=O)[C@H](Cc2ccccc2)N(C)C(=O)[C@H](CC)N(C)C(=O)[C@H](C(C)C)NC(=O)[C@H](CC)N(C)C(=O)[C@H](CC(C)C)N(C)C(=O)[C@H](C)N(C)C(=O)C[C@@H](C(=O)N2CCCCC2)NC(=O)[C@H](C(C)C)N(C)C1=O [pd002] ([NMeA][NMeL][NMeAbu]V[NMeAbu][NMeF]T[NMeI][NMeF][NMeL]PI[NMeV]D-Piperidide; lactam N-14)
0.27	0.27 10^-6 cm/sec	17.9	19.0	–	CC[C@H](C)[C@H]1C(=O)N[C@@H]([C@@H](C)O)C(=O)N(C)CC(=O)N(C)[C@@H](CC(C)C)C(=O)N(C)[C@@H](Cc2ccccc2)C(=O)N[C@H](C(=O)N2CCCCC2)CC(=O)N(C)[C@@H](C)C(=O)N[C@@H](CC(C)C)C(=O)N(C)[C@@H](Cc2ccccc2)C(=O)N(C)CCC(=O)N(C)[C@@H](CC(C)C)C(=O)N[C@@H](CC(C)C)C(=O)N(C)[C@@H](C)C(=O)N(C)[C@@H](CC)C(=O)N1C [pd003] ([NMeA]L[NMeF][NMeβAla][NMeL]L[NMeA][NMeAbu][NMeI]T[Sar][NMeL][NMeF]D-Piperidide; lactam N-14)
0.82	0.82 10^-6 cm/sec	36.2	27.4	–	CC[C@H](C)[C@@H]1NC(=O)[C@H](C)N(C)C(=O)C[C@@H](C(=O)N2CCCCC2)NC(=O)[C@H](CC)N(C)C(=O)[C@H](COC(C)(C)C)NC(=O)[C@H](CC(C)C)N(C)C(=O)[C@H](C)N(C)C(=O)[C@H](CC(C)C)N(C)C(=O)[C@H](Cc2ccccc2)N(C)C(=O)CN(C)C(=O)[C@H]([C@@H](C)O)NC(=O)[C@H](CC(C)C)N(C)C(=O)[C@H](C(C)C)N(C)C(=O)[C@H](Cc2ccccc2)N(C)C1=O [pd004] ([NMeA]I[NMeF][NMeV][NMeL]T[Sar][NMeF][NMeL][NMeA][NMeL]S(tBu)[NMeAbu]D-Piperidide; lactam N-14)
0.05	0.05 10^-6 cm/sec	1.4	1.1	–	CC[C@@H]1NC(=O)[C@H](C)N(C)C(=O)[C@H](CC(C)C)N(C)C(=O)[C@H]([C@@H](C)O)N(C)C(=O)[C@H](CC(C)C)N(C)C(=O)CCNC(=O)[C@H](Cc2ccccc2)N(C)C(=O)CN(C)C(=O)C[C@@H](C(=O)N2CCCCC2)NC(=O)[C@H](C(C)C)N(C)C(=O)[C@H](C)N(C)C(=O)[C@@H]2CCCN2C(=O)[C@H](C(C)C)NC(=O)[C@H](Cc2ccccc2)N(C)C1=O [pd005] ([Sar][NMeF][βAla][NMeL][NMeT][NMeL][NMeA][Abu][NMeF]VP[NMeA][NMeV]D-Piperidide; lactam N-14)
< 0.11	<0.11 10^-6 cm/sec	51.4	30.0	–	CC[C@@H]1NC(=O)[C@H](CC(C)C)N(C)C(=O)[C@H](CC(C)C)NC(=O)CN(C)C(=O)[C@H](C(C)C)NC(=O)[C@H](CC(C)C)N(C)C(=O)[C@H](C(C)C)NC(=O)[C@H](Cc2ccccc2)N(C)C(=O)[C@H](C)N(C)C(=O)[C@@H](C)NC(=O)C[C@@H](C)NC(=O)[C@H](C(C)C)N(C)C(=O)[C@H](CC)N(C)C(=O)[C@H](CCc2ccccc2)NC1=O [pd006] (cyclo([Abu][hPhe][NMeAbu][NMeV][d(β3hA)][dA][NMeA][NMeF]V[NMeL]V[Sar]L[NMeL]))
0.11	0.11 10^-6 cm/sec	40.8	34.9	–	CC[C@H](C)[C@@H]1NC(=O)[C@H](CC(C)C)N(C)C(=O)[C@H](CC(C)C)NC(=O)[C@H](C)N(C)C(=O)C[C@@H](C)NC(=O)[C@H](CC(C)C)NC(=O)[C@H](CC(C)C)N(C)C(=O)CN(C)C(=O)[C@H](C(C)C)NC(=O)[C@H]([C@@H](C)CC)N(C)C(=O)[C@H](COC(C)(C)C)NC(=O)[C@H](CC(C)C)N(C)C(=O)CCNC(=O)[C@H](Cc2ccccc2)N(C)C1=O [pd007] (cyclo(I[NMeF][βAla][NMeL]S(tBu)[NMeI]V[Sar][NMeL]L[d(β3hA)][NMeA]L[NMeL]))
0.04	0.04 10^-6 cm/sec	13.4	11.8	–	CC[C@@H]1NC(=O)[C@H](Cc2ccccc2)N(C)C(=O)[C@H](COC(C)(C)C)NC(=O)[C@H](CC(C)C)N(C)C(=O)[C@H](C(C)C)NC(=O)CN(C)C(=O)[C@H]([C@@H](C)O)NC(=O)[C@H](CC(C)C)N(C)C(=O)[C@H](C(C)C)NC(=O)[C@H](Cc2ccccc2)N(C)C(=O)[C@H](C)N(C)C(=O)[C@@H](C)NC(=O)C[C@@H](C)NC(=O)[C@H](C(C)C)N(C)C1=O [pd008] (cyclo([Abu][NMeV][d(β3hA)][dA][NMeA][NMeF]V[NMeL]T[Sar]V[NMeL]S(tBu)[NMeF]))
0.13	0.13 10^-6 cm/sec	38.9	42.4	–	CC[C@H](C)[C@@H]1NC(=O)[C@H](CC(C)C)N(C)C(=O)[C@H](CC(C)C)NC(=O)[C@H](C)N(C)C(=O)C[C@@H](C)NC(=O)CN(C)C(=O)[C@H](CC(C)C)N(C)C(=O)[C@H]([C@@H](C)O)NC(=O)[C@H](C(C)C)NC(=O)[C@H]([C@@H](C)CC)N(C)C(=O)[C@H](COC(C)(C)C)NC(=O)[C@H](CC(C)C)N(C)C(=O)[C@H](C)NC(=O)[C@H](Cc2ccccc2)N(C)C1=O [pd009] (cyclo(A[NMeL]S(tBu)[NMeI]VT[NMeL][Sar][d(β3hA)][NMeA]L[NMeL]I[NMeF]))
–	<0.10 10^-6 cm/sec	10.9	18.2	<0.10 10^-6 cm/sec	CC[C@@H]1NC(=O)[C@H](CC(C)C)N(C)C(=O)[C@H](C)NC(=O)CN(C)C(=O)[C@H](CC(C)C)N(C)C(=O)CCN(C)C(=O)[C@H](Cc2ccccc2)N(C)C(=O)[C@H]([C@@H](C)CC)NC(=O)[C@H]([C@@H](C)CC)N(C)C(=O)[C@@H](C)NC(=O)C[C@@H](C(=O)N2CCCCC2)N(C)C(=O)[C@H](Cc2ccccc2)N(C)C(=O)[C@H](C(C)C)NC(=O)[C@H](C)N(C)C1=O [pd076] ([dA][NMeI]I[NMeF][NMeβAla][NMeL][Sar]A[NMeL][Abu][NMeA]V[NMeF][NMeD]-Piperidide; lactam N-14)

SMILES	Papp A→B [1] [×10⁻⁶ cm/s]	Caco2 Papp (10^-6 cm/sec) (Caco-2 cells)	microsomal CLint at 1 µM [2] [µL/min/mg]	Mouse Hepatic Microsome CLh,int NADPH(-) [2] [µL/min/mg Protein]	Caco2 Papp (Caco-2 cells; Apical FaSSIF/HBSS pH 6.0, Basal HBSS 4% BSA pH 7.4, 180 minutes)
CC[C@@H]1NC(=O)[C@H](CC(C)C)N(C)C(=O)[C@H]([C@@H](C)CC)NC(=O)CN(C)C(=O)C[C@@H](C)NC(=O)[C@H](C(C)C)N(C)C(=O)[C@H](COC(C)(C)C)NC(=O)[C@H](CC(C)C)N(C)C(=O)[C@H](C)NC(=O)[C@H](Cc2ccccc2)N(C)C(=O)[C@H](CC(C)C)NC(=O)CN(C)C(=O)[C@H]([C@@H](C)O)NC(=O)[C@H](CC(C)C)N(C)C1=O [pd010] (cyclo(A[NMeL]S(tBu)[NMeV][d(β3hA)][Sar]I[NMeL][Abu][NMeL]T[Sar]L[NMeF]))	0.72	0.72 10^-6 cm/sec	59.7	27.8	–
